# From patent publication US20130023504A1, “Modulation of Prostaglandin/Cyclooxygenase Metabolic Pathways” (HUNTER-FLEMING LIMITED, priority 2006, published 2013)
# Where “and” joins values, the source holds several entries; their conditions need not be identical. Identical values can stand only once.
# Tests used:
# [1] = tested on: control rats without colitis; assay: Colonic prostaglandin levels and COX-2/PG synthase mRNA in control rats without colitis; type: in vivo, rat
# Protocol: After a 7-day adaptation period, animals were divided into two control groups (sham-control and 7β-hydroxy-EPIA-treated control group and two colitis groups (colitis and 7β-hydroxy-EPIA-treated colitis). 7β-Hydroxy-EPIA (0.01, 0.1, and 1 mg/kg body weight dissolved in DMSO) or DMSO alone (vehicle) was administered i.p. once a day for 7 days, from day 0 to day 7. Colitis was induced from day 7 to 14 by addition of DSS (molecular weight 36-50 kDa; MP Biomedicals, France) to drinking water. The two control groups received tap water only.
# Commercially available EIA kits were used for the determination of PGE2 levels (Oxford Biomedical Research, UK) and 15d-PGJ2 levels (Assay designs, Euromedex, France) in colonic supernatants obtained from fresh homogenates. Measurement of PGD2 levels was obtained using the prostaglandin D2-MOX EIA kit (Cayman Chemical, Euromedex). In this case, and prior to assay, the fresh samples were immediately treated with the MOX-HCl reagent which converted PGD2 into PGD2-MOX, thus preventing any further chemical degradation.
# Total RNA from fresh colonic samples (300 mg) was extracted using Trizol Reagent (Invitrogen, Cergy-Pontoise, France). Poly(A) RNA was purified from total RNA with MicroPoly(A)Purist kit (Ambion, Huntingdon, UK). cDNA was synthesized using the Superscript first strand synthesis system kit (Invitrogen). Real-time PCR was performed using mixtures (25 μL) containing 2.5× RealMaster Mix/20×SYBR solution (11.25 μL) (Eppendorf, Le Pecq, France) and 300 nM forward and reverse primers. Reactions were run on a RealPlex ep gradient S mastercycler (Eppendorf). The cycling conditions were at 95° C. for 10 minutes and 40 cycles at 95° C., 55° C. and 68° C. for 15 seconds, 30 seconds and 30 seconds, respectively. Each assay included a standard curve of four serial dilution points of control cDNA. Oligonucleotide primers were synthesized by Genecust/Distribio (Evry, France). The specificity of the amplified product was monitored by examination of the product melting curve and confirmed by analysis on agarose gel electrophoresis. The levels of mRNA were expressed relative to that of the DMSO control, after normalization to HPRT1.
# rat sensory neurones = assay: Cisplatin-induced loss of neurite density in primary dorsal root ganglia sensory neurones (anti β-Tubulin); type: cell-based; details: for % Control without cisplatin (neurite length) / Mean neurite length: cisplatin 3 μg/ml
# Protocol: Primary cultures of dissociated dorsal root ganglia sensory neurones were incubated with 3 μg/ml cisplatin, with and without 7β-OH EPIA for 48 hours and 72 hours and the following parameters were evaluated:
# neurite network density stained with an anti 8-Tubulin antibody
# Rat sensory neurones were prepared according to the method described by Hall et al 1997 [Hall et al. (J. Neurosci. 1997 Apr. 15; 17(8); 2775-84]. Briefly, a female rat (15 days gestation) was killed by cervical dislocation (Rats Wistar; Janvier, Le Genest-St-lsle, France) and the foetuses removed from the uterus. Their spinal cords with the dorsal root ganglia (DRG) were removed and placed in ice-cold medium of Leibovitz (L15, Fisher 11415-049) containing Penicillin 50 UI/ml-Streptomycin 50 μg/ml (PS, 1%) and bovine serum albuminutes (BSA 1%, Sigma A6003). The DRG were recovered and dissociated by trypsinisation for 20 minutes at 37° C. (trypsin EDTA 10×, 10%, Fisher 15400054) diluted in PBS without calcium and magnesium (Fisher 2007-03). The reaction was stopped by addition of Dulbecco modified Eagle medium (DMEM, Fisher 21969-035) containing DNase I grade II (0.1 mg/ml Roche diagnostic 104159) and foetal bovine serum (FBS 10%, Fisher 10270-098). The cell suspension was triturated with a 10 ml pipette and centrifuged at 350×g for 10 minutes at room temperature. The pellet of dissociated cells was then resuspended in defined culture medium.
# Viable cells were counted in a Neubauer cytometer using the trypan blue exclusion test (Sigma) and seeded at a density of 30 000 cells/well in 96 well-plates (Nunc). Wells were pre-coated with poly-L-lysine (10 μg/ml, Sigma P2636) in ultra pure sterile water (Merck Eurolab 60759.01).
# Cells were allowed to adhere for 2 h and maintained in a humidified incubator at 37° C. in 5% CO2/95% air atmosphere.
# After 5 days of culture, the culture medium was changed into a defined culture medium following the different conditions described below:
# Test compound 7β-OH EPIA (1 nM, 10 nM and 100 nM)+cisplatin (3 μg/ml)
# Reference compound NGF (10 ng/ml)+cisplatin (3 μg/ml)
# Six wells per condition were carried out to assess neuronal survival. After 48 hours and 72 hours of incubation, the neuronal cells were fixed for 5 minutes in an ethanol/acetic acid solution (95%/5%) at −20° C. and rinsed 3 times in PBS.
# Cell bodies of sensory neurones were labelled by monoclonal anti MAP-2 antibody (Sigma M4403) and the neurite of sensory neurones were labelled by monoclonal β-Tubulin antibody (Sigma T8660). These antibodies were diluted at 1:400 in incubation solution (PBS with 5% of FCS and 0.1% of saponin, Sigma S-7900). These antibodies specifically label neurone cell bodies and neuritis, respectively.
# After 2 hours of incubation, the cells were washed in PBS and incubated with Alexa Fluor 488 goat anti mouse IgG (Molecular Probes A11001) diluted at 1:300 in incubation solution to reveal the MAP-2 and the β-Tubulin antibodies. Cell nuclei were stained with a fluorescent marker (Hoechst staining solution, SIGMA H6024, 1 μg/ml in incubation solution during 1 hour).
# For each condition, 2 pictures per well (12 pictures per condition) were taken using In Cell Analyzer 1000 (Amersham Biosciences) controlled by the computer software In Cell Analyzer 1000 3.2. For the MAP-2 labelling, the magnification was ×10, for the β-Tubulin labelling, the magnification was ×20. For each labelling, all the images were taken in the same conditions.
# Analysis of the number of cell bodies labelled with anti-MAP-2 antibodies, and total length of neurites labelled with anti β-Tubulin antibodies, were carried out using In Cell Analyzer 1000 3.2.Workstation software. The results were expressed in percentage compared to the vehicle. The comparisons of each group were carried out using the unpaired T test.
compound,measurement,setting,value
"CC12CCC3C(C1CCC2=O)[C@@H](O)C[C@H]1C[C@@H](O)CCC31C (stereo partly drawn) [Compound 7β-OH-EPIA, 7β-hydroxy-EPIAndrosterone]",increase of colonic 15d-PGJ2 above basal levels,"[1]; 0.1 mg/kg day 0 to day 7, day 2",51 fold
same,increase in COX-2 mRNA levels,"[1]; 0.1 mg/kg, at 15 h",1.5 fold
same,mPGES-1 mRNA expression,"[1]; 0.1 mg/kg, between 6 h and 15 h",increased transiently
same,H-PGDS mRNA synthesis,"[1]; 0.1 mg/kg, course of the experiment",remained unchanged
same,PGE2 and PGD2 colonic tissue levels,[1]; control rats without colitis,did not alter
same,reduction of cisplatin-induced toxicity (neurite loss),"rat sensory neurones; 1 nM, 48 hours",90.7%
same,reduction of cisplatin-induced toxicity (neurite loss),"rat sensory neurones; 1 nM, 72 hours",70.8%
same,% Control without cisplatin (neurite length),"rat sensory neurones; 1 nM, 48 hours",99%
same,Mean neurite length,"rat sensory neurones; 1 nM, 48 hours",5378 μm and 5377.89 μm
same,% Control without cisplatin (neurite length),"rat sensory neurones; 1 nM, 72 hours",93%
same,Mean neurite length,"rat sensory neurones; 1 nM, 72 hours",4948 μm and 4947.99 μm
same,reduction of cisplatin-induced toxicity (neurite loss),"rat sensory neurones; 10 nM, 48 hours",101%
same,% Control without cisplatin (neurite length),"rat sensory neurones; 10 nM, 48 hours",102%
same,Mean neurite length,"rat sensory neurones; 10 nM, 48 hours",5549 μm and 5549.41 μm
same,% Control without cisplatin (neurite length),"rat sensory neurones; 10 nM, 72 hours",80%
same,Mean neurite length,"rat sensory neurones; 10 nM, 72 hours",4275.04 μm
same,% Control without cisplatin (neurite length),"rat sensory neurones; 100 nM, 48 hours",81%
same,Mean neurite length,"rat sensory neurones; 100 nM, 48 hours",4442.51 μm
same,% Control without cisplatin (neurite length),"rat sensory neurones; 100 nM, 72 hours",77%
same,Mean neurite length,"rat sensory neurones; 100 nM, 72 hours",4080.89 μm
